Tests used:
Test in all cases: relative viability (nuclei count vs DMSO), 5 days (fraction); higher = more cells survive
[1] = compound: CN1CCN(CC1)C2=CC(=C(C=C2)NC3=NC(=C(S3)C(=O)C4=C(C=CC=C4Cl)Cl)N)OC [XMD14-99] + C[C@]1(O)C[C@@H](c2nc(-c3ccc4ccc(-c5ccccc5)nc4c3)c3c(N)nccn32)C1 [Linsitinib] (partner 1 µM)
In short: (§1)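 Dosing by pin tool came one day after lung cancer cell lines were seeded in 1536-well plates, using either one drug or a fixed anchor-drug dose plus five library-drug doses (not always all listed) in √10 steps. After 5 days, nuclei were counted on 4× images. Relative viability is treated-well nuclei count divided by vehicle-well nuclei count, and values are medians of duplicate plates.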

[2] = compound: N[C@@H]1CCCN(c2c(/C=C3\SC(=O)NC3=O)cccc2-c2ccccc2)C1 [AZD1208] + C[C@@H](Oc1cc(-c2cnn(C3CCNCC3)c2)cnc1N)c1c(Cl)ccc(F)c1Cl [Crizotinib] (partner 1 µM)
In short: as §1

[3] = compound: N[C@@H]1CCCN(c2c(/C=C3\SC(=O)NC3=O)cccc2-c2ccccc2)C1 [AZD1208] + Nc1nc2[nH]cc(CCc3ccc(C(=O)N[C@@H](CCC(=O)O)C(=O)O)cc3)c2c(=O)[nH]1 [Pemetrexed] (partner 0.2 µM)
In short: as §1

[4] = compound: N[C@@H]1CCCN(c2c(/C=C3\SC(=O)NC3=O)cccc2-c2ccccc2)C1 [AZD1208] + O=C(c1cc(Cc2n[nH]c(=O)c3ccccc23)ccc1F)N1CCN(C(=O)C2CC2)CC1 [Olaparib] (partner 8 µM)
In short: as §1

| Cell Line | relative viability ([1]; first compound 0.08 µM) | relative viability ([1]; first compound 0.8 µM) | relative viability ([1]; first compound 2.53 µM) | relative viability ([1]; first compound 8 µM) | relative viability ([2]; first compound 0.08 µM) | relative viability ([2]; first compound 0.253 µM) | relative viability ([2]; first compound 0.8 µM) | relative viability ([2]; first compound 2.53 µM) | relative viability ([2]; first compound 8 µM) | relative viability ([3]; first compound 0.08 µM) | relative viability ([3]; first compound 0.253 µM) | relative viability ([3]; first compound 0.8 µM) | relative viability ([3]; first compound 2.53 µM) | relative viability ([3]; first compound 8 µM) | relative viability ([4]; first compound 0.08 µM) | relative viability ([4]; first compound 0.253 µM) | relative viability ([4]; first compound 0.8 µM) | relative viability ([4]; first compound 2.53 µM) | relative viability ([4]; first compound 8 µM) |
| --- | --- | --- | --- | --- | --- | --- | --- | --- | --- | --- | --- | --- | --- | --- | --- | --- | --- | --- | --- |
| NCI-H1755 | 1.02 | 0.989 | 1.02 | 0.736 | 0.863 | 0.939 | 0.8 | 0.777 | 0.728 | 0.451 | 0.457 | 0.532 | 0.426 | 0.413 | 0.835 | 0.83 | 0.841 | 0.849 | 0.66 |
| HCC-78 | 0.526 | 0.477 | 0.509 | 0.446 | 0.338 | 0.366 | 0.333 | 0.356 | 0.323 | 0.91 | 0.908 | 0.897 | 0.87 | 0.912 | 0.859 | 0.904 | 0.762 | 0.815 | 0.754 |
| IA-LM | 0.648 | 0.308 | 0.286 | 0.281 | 0.827 | 0.724 | 0.797 | 0.669 | 0.748 |  |  |  |  |  | 0.907 | 0.777 | 0.774 | 0.807 | 0.904 |
| NCI-H441 | 0.719 | 0.52 | 0.528 | 0.382 | 0.73 | 0.674 | 0.667 | 0.526 | 0.42 | 0.234 | 0.263 | 0.237 | 0.263 | 0.256 | 0.578 | 0.529 | 0.545 | 0.502 | 0.366 |
| NCI-H322M | 0.903 | 0.959 | 0.951 | 0.845 | 1.14 | 0.972 | 0.975 | 0.607 | 0.974 | 0.565 | 0.654 |  | 0.622 | 0.608 | 0.762 | 0.799 |  | 0.726 | 0.834 |
| NCI-H1993 | 0.684 | 0.66 | 0.659 | 0.749 |  | 0.678 | 0.759 | 0.735 | 0.728 | 0.481 | 0.527 | 0.526 | 0.568 | 0.413 | 0.777 | 0.973 | 0.911 | 0.968 | 0.736 |
| COR-L23 | 0.865 | 0.806 | 0.891 | 0.478 | 0.741 | 0.661 | 0.699 | 0.725 | 0.647 | 0.188 | 0.193 | 0.195 | 0.206 | 0.194 | 0.307 | 0.354 | 0.372 | 0.304 | 0.321 |
| NCI-H1793 | 0.9 | 0.979 | 0.703 | 0.738 |  |  |  |  |  | 0.828 | 0.954 | 0.716 | 0.935 | 0.718 | 0.878 | 0.649 | 0.767 | 0.744 | 0.675 |
| ChaGo-K-1 |  |  |  |  | 1.1 | 1.28 | 0.99 | 1.16 | 0.9 | 0.269 | 0.261 | 0.293 | 0.261 | 0.25 | 0.426 | 0.431 | 0.378 | 0.437 | 0.434 |

— the supplement of paper PMC10307832
